Data taken from patent publication US20240132519A1, “NRF2-ACTIVATING COMPOUND” (SENJU PHARMACEUTICAL CO., LTD., priority 2020, published 2024).

These compounds were tested on NRF2 (assay: Reporter assay: NRF2 activating action in HCE-T/ARE-Luc cells (ARE luciferase reporter gene assay)). Conditions: Homo sapiens; Test Example 1-2; HCE-T/ARE-Luc cells, 24 hours; N=3.
Assay type: cell-based, human
Procedure: The NRF2 activating action of the compounds on cells was measured by a reporter gene assay. pGL4.37[luc2P/ARE/Hygro] (Promega) was introduced into HCE-T cells using FuGENE HD. Cells that acquired drug resistance as a result of transduction were screened by culture in the presence of 50 μg/mL hygromycin, and a clone strain, HCE-T/ARE-Luc cells, was established.
HCE-T/ARE-Luc cells were cultured using DMEM/F12 medium containing 10 ng/mL hEGF, 5 μg/mL insulin, 5% FBS, and 40 μg/mL gentamicin. As the assay medium, a medium with the same composition as that for the culture was prepared using phenol red-free DMEM/F12 medium.
HCE-T/ARE-Luc cells were seeded in a 96-well polystyrene microplate (FALCON) with 10000 cells per well. The cells were incubated in a CO2 incubator at 37° C. for 16 hours to allow for cell adhesion. The test substance was dissolved in dimethylsulfoxide to prepare a solution at a concentration 1000 times higher than the test concentration. The cells were treated with the test substance diluted 1000-fold with the assay medium and cultured for 24 hours. When measuring the activity of the reporter, the medium containing the test substance was removed, and then a new medium and a substrate of ONE-GloEX Luciferase Assay System (Promega) were added. The plate was shaken for 1 minute and then allowed to stand at ordinary temperature for 10 minutes, and luminescence was detected using the GloMax Discover System (Promega).
The test was performed at N=3, and the 50% activation concentration of each test substance was calculated by creating a calibration curve between two concentrations across the luminescence incensity of 50%.
(§1) Compounds A1/A2, compounds B1/B2, compounds C1/C2, and compounds D1/D2 were used as test substances. Binding assay and reporter assay were performed as in Test Example 1-1 and Test Example 1-2.

EC50 [nM] | SMILES
9 | CC[C@@H]1CN(Cc2cc(C(c3cc(C)c(C(C)=O)s3)C(C)C(=O)O)ccc2C)S(=O)(=O)c2ccccc2O1 (stereo partly drawn) [Compound 2, 3-(5-acetyl-4-methylthiophen-2-yl)-3-(3-{[(R)-4-ethyl-1,1-dioxide-3,4-dihydro-2H-benzo[b][1,4,5]oxathiazepin-2-yl]methyl}-4-methylphenyl)-2-methylpropanoic acid]

These compounds were tested against binding between NRF2 and KEAP1 (Homo sapiens (Human), UniProt Q14145) (assay: Binding assay: inhibition of binding between NRF2 and KEAP1 by BRET (NanoLuc-NRF2 and KEAP1-HaloTag cell lysates)). Conditions: Test Example 1-1; NRF2-KEAP1 BRET; N=2.
Chain of binding between NRF2 and KEAP1 (Q14145 whole entry, the tested form may be a part): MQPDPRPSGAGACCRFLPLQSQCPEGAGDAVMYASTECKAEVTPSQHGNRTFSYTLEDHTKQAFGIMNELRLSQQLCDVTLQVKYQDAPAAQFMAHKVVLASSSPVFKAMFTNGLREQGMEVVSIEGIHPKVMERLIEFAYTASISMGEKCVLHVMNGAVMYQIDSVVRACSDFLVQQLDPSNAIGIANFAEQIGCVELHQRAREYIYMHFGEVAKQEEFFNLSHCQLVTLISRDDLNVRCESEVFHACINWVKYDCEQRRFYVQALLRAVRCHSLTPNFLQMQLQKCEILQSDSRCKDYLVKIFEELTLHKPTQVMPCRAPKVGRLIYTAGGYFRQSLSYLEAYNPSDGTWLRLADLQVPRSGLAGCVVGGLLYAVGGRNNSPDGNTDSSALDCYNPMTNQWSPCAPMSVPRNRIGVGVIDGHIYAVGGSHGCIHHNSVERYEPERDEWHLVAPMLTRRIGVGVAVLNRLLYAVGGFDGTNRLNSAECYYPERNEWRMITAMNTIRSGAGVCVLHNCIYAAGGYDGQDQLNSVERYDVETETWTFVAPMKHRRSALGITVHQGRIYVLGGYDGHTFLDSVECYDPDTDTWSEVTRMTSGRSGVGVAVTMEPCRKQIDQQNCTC
Procedure: The inhibitory activity of each compound on the binding between NRF2 and KEAP1 was measured by bioluminescence resonance energy transfer (BRET) assay. A plasmid having human NRF2 (Original Clone ID: ha01449s1) sequence fused with NanoLuc (19 kDa, Promega) at the N-terminal was transduced into HCE-T cells (immortalized human corneal epithelial cells) using FuGENE HD (Promega). 48 hours after transduction, the cell lysate was collected and used as an NRF2-expressing cell lysate. A plasmid having human KEAP1 (Original Clone ID: cs00328) sequence fused with HaloTag (33 kDa, Promega) at the C-terminal was transduced into HCE-T cells using FuGENE HD (Promega). After 24 hours, HaloTag Nano BRET 618 Ligand (Promega) was added to the medium. The cell lysate cultured for 24 hours after the addition was used as a KEAP1-expressing cell lysate.
The NRF2-expressing cell lysate and the KEAP1-expressing cell lysate were adjusted so that the luminescence and fluorescence intensities per well were constant. Tables 1 and 2 show the formulation of each reaction solution.
Each test substance at a concentration 100 times higher than the test concentration was dissolved in dimethylsulfoxide for adjustment. 49 μL of KEAP1 solution was added to a 96-well polystyrene microplate (FALCON) to which 1 μL of each test substance solution was added, followed by incubation for 15 minutes. Then, 50 μL of NRF2 solution was added to the above solution, followed by incubation for 1 hour. To measure the binding between NRF2 and KEAP1, NanoBRET Nano-Glo Substrate (Promega) diluted with Opti-Mem (Thermo Fisher Scientific) was added, followed by shaking for 30 seconds. Then, luminescence and fluorescence were measured using the GloMax Discover System (Promega). A 495-nm short pass filter and a 600-nm long pass filter were respectively used to measure donor and acceptor emission values. A value obtained by dividing the acceptor emission value by the donor emission value was regarded as BRET value. A BRET value when the compound was not added, and a BRET value when the KEAP1 solution was not added were respectively used as binding rates of 100% and 0%, and the binding rate when the compound was added was calculated. Further, using this binding rate, the 50% binding inhibitory activity concentration (IC50) was calculated from the following formula. The test was performed at N=2.
IC50(M)=10^(LOG(A/B)×(50−C)/(D−C)+LOG(B)) • A: higher concentration out of 2 close concentrations across the inhibition rate of 50% • B: lower concentration out of 2 close concentrations across the inhibition rate of 50% • C: inhibition rate at B • D: inhibition rate at A
as §1

SMILES | IC50 [nM]
CC(=O)c1ccc(C(c2ccc(C)c(CN3C[C@@H](C)Oc4ccccc4S3(=O)=O)c2)C(C)(C)C(=O)O)s1 (stereo partly drawn) [Compound 12, 3-(5-acetylthiophen-2-yl)-2,2-dimethyl-3-(4-methyl-3-{[(R)-4-methyl-1,1-dioxide-3,4-dihydro-2H-benzo[b][1,4,5]oxathiazepin-2-yl]methyl}phenyl)propanoic acid] | 0.28
CC(=O)c1ccc(C(c2ccc(C)c(CN3CC(CCOCc4ccccc4)Oc4ccccc4S3(=O)=O)c2)C(C)C(=O)O)s1 (stereo not shown) [Compound 13, 3-(5-acetylthiophen-2-yl)-3-[3-({4-[2-(benzyloxy)ethyl]-1,1-dioxide-3,4-dihydro-2H-benzo[b][1,4,5]oxathiazepin-2-yl}methyl)-4-methylphenyl]-2-methylpropanoic acid] | 0.5
CC[C@@H]1CN(Cc2cc(C(c3ccc(C(C)=O)s3)C(C)C(=O)O)ccc2C)S(=O)(=O)c2cnccc2O1 (stereo partly drawn) [Compound 16, 3-(5-acetylthiophen-2-yl)-3-(3-{[(R)-4-ethyl-1,1-dioxide-3,4-dihydro-2H-pyrido[4,3-b][1,4,5]oxathiazepin-2-yl]methyl}-4-methylphenyl)-2-methylpropanoic acid] | 0.2
CC[C@@H]1CN(Cc2cc(C(c3ccc(C(C)=O)s3)C(C)(C)C(=O)O)ccc2C)S(=O)(=O)c2cnccc2O1 (stereo partly drawn) [Compound 48, 3-(5-acetylthiophen-2-yl)-3-(3-{[(R)-4-ethyl-1,1-dioxide-3,4-dihydro-2H-pyrido[4,3-b][1,4,5]oxathiazepin-2-yl]methyl}-4-methylphenyl)-2,2-dimethylpropanoic acid] | 0.39
CC[C@@H]1CN(Cc2cc(C(c3cc(F)c(C(C)=O)s3)C(C)(C)C(=O)O)ccc2C)S(=O)(=O)c2cnccc2O1 (stereo partly drawn) [Compound 49, 3-(5-acetyl-4-fluorothiophen-2-yl)-3-(3-{[(R)-4-ethyl-1,1-dioxide-3,4-dihydro-2H-pyrido[4,3-b][1,4,5]oxathiazepin-2-yl]methyl}-4-methylphenyl)-2,2-dimethylpropanoic acid] | 0.31
CC[C@@H]1CN(Cc2cc(C(c3cc(OC)c(C(C)=O)s3)C(C)(C)C(=O)O)ccc2C)S(=O)(=O)c2cnccc2O1 (stereo partly drawn) [Compound 50, 3-(5-acetyl-4-methoxythiophen-2-yl)-3-(3-{[(R)-4-ethyl-1,1-dioxide-3,4-dihydro-2H-pyrido[4,3-b][1,4,5]oxathiazepin-2-yl]methyl}-4-methylphenyl)-2,2-dimethylpropanoic acid] | 0.19
CC[C@@H]1CN(Cc2cc(C(c3cc(OC)c(C(C)=O)s3)C(C)C(=O)O)ccc2C)S(=O)(=O)c2cnccc2O1 (stereo partly drawn) [Compound 51, 3-(5-acetyl-4-methoxythiophen-2-yl)-3-(3-{[(R)-4-ethyl-1,1-dioxide-3,4-dihydro-2H-pyrido[4,3-b][1,4,5]oxathiazepin-2-yl]methyl}-4-methylphenyl)-2-methylpropanoic acid] | 0.41
CC[C@@H]1CN(Cc2cc(C(c3cc(F)c(C(C)=O)s3)C(C)C(=O)O)ccc2C)S(=O)(=O)c2cnccc2O1 (stereo partly drawn) [Compound 52, 3-(5-acetyl-4-fluorothiophen-2-yl)-3-(3-{[(R)-4-ethyl-1,1-dioxide-3,4-dihydro-2H-pyrido[4,3-b][1,4,5]oxathiazepin-2-yl]methyl}-4-methylphenyl)-2-methylpropanoic acid] | 0.27

More lines, now with the values ahead:

IC50 [nM] | SMILES
0.25 | CC[C@@H]1CN(Cc2cc(C(c3cc(C)c(C(C)=O)s3)C(C)C(=O)O)ccc2C)S(=O)(=O)c2ccccc2O1 (stereo partly drawn) [Compound 2, 3-(5-acetyl-4-methylthiophen-2-yl)-3-(3-{[(R)-4-ethyl-1,1-dioxide-3,4-dihydro-2H-benzo[b][1,4,5]oxathiazepin-2-yl]methyl}-4-methylphenyl)-2-methylpropanoic acid]
0.23 | CC[C@@H]1CN(Cc2cc(C(c3cc(F)c(C(C)=O)s3)C(C)(C)C(=O)O)ccc2C)S(=O)(=O)c2ccccc2O1 (stereo partly drawn) [Compound 11, 3-(5-acetyl-4-fluorothiophen-2-yl)-3-(3-{[(R)-4-ethyl-1,1-dioxide-3,4-dihydro-2H-benzo[b][1,4,5]oxathiazepin-2-yl]methyl}-4-methylphenyl)-2,2-dimethylpropanoic acid]
1.3 | CC[C@@H]1CN(Cc2cc(C(CC(=O)O)c3sc(C(C)=O)cc3C)ccc2C)S(=O)(=O)c2ccccc2O1 (stereo partly drawn) [Compound 14, 3-(5-acetyl-3-methylthiophen-2-yl)-3-(3-{[(R)-4-ethyl-1,1-dioxide-3,4-dihydro-2H-benzo[b][1,4,5]oxathiazepin-2-yl]methyl}-4-methylphenyl)propanoic acid]
1.4 | CC[C@@H]1CN(Cc2cc(C(CC(=O)O)c3csc(C(C)=O)c3)ccc2C)S(=O)(=O)c2ccccc2O1 (stereo partly drawn) [Compound 15, 3-(5-acetylthiophen-3-yl)-3-(3-{[(R)-4-ethyl-1,1-dioxide-3,4-dihydro-2H-benzo[b][1,4,5]oxathiazepin-2-yl]methyl}-4-methylphenyl)propanoic acid]
28 | CC[C@@H]1CN(Cc2cc(C(CC(=O)O)c3cccs3)ccc2C)S(=O)(=O)c2ccccc2O1 (stereo partly drawn) [Compound 17, 3-(3-{[(R)-4-ethyl-1,1-dioxide-3,4-dihydro-2H-benzo[b][1,4,5]oxathiazepin-2-yl]methyl}-4-methylphenyl)-3-(thiophen-2-yl)propanoic acid]
3.1 | CC[C@@H]1CN(Cc2cc(C(CC(=O)O)c3ccc(C#N)s3)ccc2C)S(=O)(=O)c2ccccc2O1 (stereo partly drawn) [Compound 19, 3-(5-cyanothiophen-2-yl)-3-(3-{[(R)-4-ethyl-1,1-dioxide-3,4-dihydro-2H-benzo[b][1,4,5]oxathiazepin-2-yl]methyl}-4-methylphenyl)propanoic acid]
4.6 | CC[C@@H]1CN(Cc2cc(C(CC(=O)O)c3ccc(C(=O)NC)s3)ccc2C)S(=O)(=O)c2ccccc2O1 (stereo partly drawn) [Compound 21, 3-(3-{[(R)-4-ethyl-1,1-dioxide-3,4-dihydro-2H-benzo[b][1,4,5]oxathiazepin-2-yl]methyl}-4-methylphenyl)-3-[5-(methylcarbamoyl)thiophen-2-yl]propanoic acid]
6.1 | CC[C@@H]1CN(Cc2cc(C(CC(=O)O)c3csc(C(=O)NC)c3)ccc2C)S(=O)(=O)c2ccccc2O1 (stereo partly drawn) [Compound 22, 3-(3-{[(R)-4-ethyl-1,1-dioxide-3,4-dihydro-2H-benzo[b][1,4,5]oxathiazepin-2-yl]methyl}-4-methylphenyl)-3-[5-(methylcarbamoyl)thiophen-3-yl]propanoic acid]
0.39 | CC[C@@H]1CN(Cc2cc(C(CC(=O)O)c3ccc(C(N)=O)s3)ccc2C)S(=O)(=O)c2ccccc2O1 (stereo partly drawn) [Compound 23, 3-(5-carbamoylthiophen-2-yl)-3-(3-{[(R)-4-ethyl-1,1-dioxide-3,4-dihydro-2H-benzo[b][1,4,5]oxathiazepin-2-yl]methyl}-4-methylphenyl)propanoic acid]
2.3 | CC[C@@H]1CN(Cc2cc(C(CC(=O)O)c3ccc(C(C)=O)s3)ccc2C)S(=O)(=O)c2cnccc2O1 (stereo partly drawn) [Compound 53, 3-(5-acetylthiophen-2-yl)-3-(3-{[(R)-4-ethyl-1,1-dioxide-3,4-dihydro-2H-pyrido[4,3-b][1,4,5]oxathiazepin-2-yl]methyl}-4-methylphenyl)propanoic acid]
